In paper PMC8733726, “Dioctanoyl Ultrashort Tetrabasic β-Peptides Sensitize Multidrug-Resistant Gram-Negative Bacteria to Novobiocin and Rifampicin” (Frontiers in Microbiology, 2021):
In brackets after ≈: the same amount, converted by molar mass. Where two headings read alike, the source gives them in different places.

How the values were obtained:
[1] = system: MDR A. baumannii clinical isolates; assay: Resistance phenotype (MICs of antibiotics) of MDR clinical isolates; format: cell-based, Acinetobacter baumannii; conditions: Acinetobacter baumannii, read-out: MIC
[2] = system: MDR K. pneumoniae clinical isolates; assay: as above; format: cell-based, Klebsiella pneumoniae; conditions: Klebsiella pneumoniae, read-out: MIC
[3] = system: MDR E. cloacae clinical isolates; assay: as above; format: cell-based, Enterobacter cloacae; conditions: Enterobacter cloacae, read-out: MIC
[4] = system: MDR P. aeruginosa clinical isolates; assay: as above; format: cell-based, Pseudomonas aeruginosa; conditions: Pseudomonas aeruginosa, read-out: MIC
[5] = system: MDR E. coli clinical isolates; assay: as above; format: cell-based, Escherichia coli; conditions: Escherichia coli, read-out: MIC
[6] = system: wild-type A. baumannii ATCC 17978; assay: Checkerboard assay; format: cell-based, Acinetobacter baumannii; conditions: ATCC 17978; for MICcombo: antibiotic with dUSTBβP 3 at 8 μg/mL; for MIC: Acinetobacter baumannii, ATCC17978, 18 h, antibiotic alone (Supplementary Table 7), read-out: MICantibiotic
Source text: (§1) Overnight-grown bacterial culture diluted in saline to 0.5 McFarland turbidity was successively diluted 1:50 in MHB to achieve a final concentration of 5 × 10^5 CFU/mL for inoculation. The antibiotic and adjuvant were serially diluted 2-fold along the x-axis and y-axis, respectively, resulting in varying concentrations of both agents in each well. […] Confirmation of turbidity was done using an EMax Plus microplate reader (Molecular Devices, United States) at a wavelength of 590 nm. Wells comprising MHB alone or in the presence of bacterial cells were used as negative or positive controls, respectively. Fractional inhibitory concentration index (FICI) is determined by adding the FICs of both antibiotic and adjuvant. The FIC of the antibiotic is calculated by dividing the MIC of the antibiotic in the presence of the adjuvant by the MIC of the antibiotic alone. Similarly, the FIC of the adjuvant is calculated by dividing the MIC of the adjuvant in the presence of the antibiotic by the MIC of the adjuvant alone.

[7] = system: wild-type E. coli ATCC 25922; assay: microbe, parasite or virus in culture; format: cell-based, Escherichia coli; conditions: ATCC 25922; for MICcombo: antibiotic with dUSTBβP 3 at 8 μg/mL; for MIC: Escherichia coli, ATCC25922, 18 h, antibiotic alone (Supplementary Table 7), read-out: MICantibiotic
Method: The adjuvant activities of dUSTBβPs were evaluated using checkerboard assay as previously described ([Berry et al., 2019]). Overnight-grown bacterial culture diluted in saline to 0.5 McFarland turbidity was successively diluted 1:50 in MHB to achieve a final concentration of 5 × 10^5 CFU/mL for inoculation. The antibiotic and adjuvant were serially diluted 2-fold along the x-axis and y-axis, respectively, resulting in varying concentrations of both agents in each well. Subsequently, the 96-well plate was incubated with equal volumes of bacterial inoculum at 37°C for 18 h. Confirmation of turbidity was done using an EMax Plus microplate reader (Molecular Devices, United States) at a wavelength of 590 nm. Wells comprising MHB alone or in the presence of bacterial cells were used as negative or positive controls, respectively. Fractional inhibitory concentration index (FICI) is determined by adding the FICs of both antibiotic and adjuvant. The FIC of the antibiotic is calculated by dividing the MIC of the antibiotic in the presence of the adjuvant by the MIC of the antibiotic alone. Similarly, the FIC of the adjuvant is calculated by dividing the MIC of the adjuvant in the presence of the antibiotic by the MIC of the adjuvant alone. FICI ≤ 0.5, 0.5 < x ≤ 4, and >4 were deemed synergistic, additive, and antagonistic, respectively ([Meletiadis et al., 2010]).

[8] = system: wild-type P. aeruginosa PAO1; assay: microbe, parasite or virus in culture; format: cell-based, Pseudomonas aeruginosa; conditions: PAO1; for MICcombo: antibiotic with dUSTBβP 3 at 8 μg/mL; for MIC: Pseudomonas aeruginosa, 18 h, antibiotic alone (Supplementary Table 7), read-out: MICantibiotic
Source text: as §1

SMILES | MIC ([1]; AB031) [µg/mL] | MIC [2]; 113250 [µg/mL] | MIC [2]; 113254 [µg/mL] | MIC [2]; 116381 [µg/mL] | MIC [3]; 117029 [µg/mL] | MIC ([4]; 259-96196) [µg/mL] | MIC ([4]; 262-101856) [µg/mL] | MIC ([4]; 264-104354) [µg/mL] | MIC [4]; 91433 [µg/mL] | MIC ([5]; 94393 (mcr-1 +)) [µg/mL] | MIC ([5]; 94474 (mcr-1 +)) [µg/mL] | MIC [5]; 107115 [µg/mL] | MIC ([1]; AB027) [µg/mL] | MIC ([1]; LAC-4) [µg/mL] | also measured
CO/N=C(\C(=O)N[C@@H]1C(=O)N2C(C(=O)[O-])=C(C[N+]3(C)CCCC3)CS[C@H]12)c1csc(N)n1 [CPM, cefepime] | 4 (≈ 8.32 µM) | 1 (≈ 2.08 µM) | 1 (≈ 2.08 µM) | 16 (≈ 33.3 µM) | ≤ 0.25 | > 64 | 32 (≈ 66.6 µM) | 32 (≈ 66.6 µM) | 16 (≈ 33.3 µM) | ≤ 0.25 | ≤ 0.25 | > 64 |  |  | MIC [1]; 92247: 4 µg/mL (≈ 8.32 µM); MIC [3]; 118564: 0.25 µg/mL (≈ 0.52 µM); MIC [3]; 121187: 0.25 µg/mL (≈ 0.52 µM)
C[C@@H](O)[C@H]1C(=O)N2C(C(=O)O)=C(SCCN=CN)C[C@H]12 [IMI, imipenem] | 0.25 (≈ 0.835 µM) | 0.25 (≈ 0.835 µM) | 0.12 (≈ 0.401 µM) | 0.5 (≈ 1.67 µM) | 0.25 (≈ 0.835 µM) | 32 (≈ 107 µM) | 32 (≈ 107 µM) | 32 (≈ 107 µM) | 32 (≈ 107 µM) | 0.25 (≈ 0.835 µM) | 0.25 (≈ 0.835 µM) | 8 (≈ 26.7 µM) | 32 (≈ 107 µM) | < 1 | 
CN(C)[C@@H]1C(O)=C(C(N)=O)C(=O)[C@@]2(O)C(O)=C3C(=O)c4c(O)c(NC(=O)CN5CCCC5)cc(F)c4C[C@H]3C[C@@H]12 [ERC, eravacycline] | 0.25 (≈ 0.448 µM) | 1 (≈ 1.79 µM) | 0.5 (≈ 0.895 µM) | 0.5 (≈ 0.895 µM) | 0.5 (≈ 0.895 µM) | 8 (≈ 14.3 µM) | 8 (≈ 14.3 µM) | 8 (≈ 14.3 µM) | 16 (≈ 28.6 µM) | 0.5 (≈ 0.895 µM) | 1 (≈ 1.79 µM) | 0.125 (≈ 0.224 µM) | 0.5 (≈ 0.895 µM) | 0.06 (≈ 0.107 µM) | MIC [4]; 114228: 8 µg/mL (≈ 14.3 µM)
CC(=O)NC[C@H]1CN(c2ccc(N3CCOCC3)c(F)c2)C(=O)O1 [Linezolid] |  |  |  |  |  |  |  |  |  |  |  |  |  |  | MICcombo [6]: 64 µg/mL; MIC [6]: 512 µg/mL; MICcombo [7]: 16 µg/mL; MIC [7]: 256 µg/mL; MICcombo [8]: 256 µg/mL; MIC [8]: 1020 µg/mL (≈ 3040 µM)
CO[C@@]1(NC(=O)Cc2cccs2)C(=O)N2C(C(=O)O)=C(COC(N)=O)CS[C@@H]21 [FOX, cefoxitin] |  | 1 (≈ 2.34 µM) | 1 (≈ 2.34 µM) | 16 (≈ 37.4 µM) | > 32 | > 32 | > 32 | > 32 | > 32 | 4 (≈ 9.36 µM) | 16 (≈ 37.4 µM) | > 32 |  |  | MIC [1]; 92247: 32 µg/mL (≈ 74.9 µM); MIC [3]; 118564: > 32 µg/mL; MIC [3]; 121187: > 32 µg/mL
CN(C)c1cc(CNCC(C)(C)C)c(O)c2c1C[C@H]1C[C@H]3[C@H](N(C)C)C(O)=C(C(N)=O)C(=O)[C@@]3(O)C(O)=C1C2=O [OMC, omadacycline] | 2 (≈ 3.59 µM) | 2 (≈ 3.59 µM) | 4 (≈ 7.19 µM) | 4 (≈ 7.19 µM) | 4 (≈ 7.19 µM) | 64 (≈ 115 µM) | 64 (≈ 115 µM) | 64 (≈ 115 µM) | 128 (≈ 230 µM) | 4 (≈ 7.19 µM) | 16 (≈ 28.7 µM) | 4 (≈ 7.19 µM) | 1 (≈ 1.8 µM) | 1 (≈ 1.8 µM) | MIC [4]; 114228: 16 µg/mL (≈ 28.7 µM)
CCC[C@@H]1C[C@@H](C(=O)N[C@@H]([C@H]2O[C@H](SC)[C@H](O)[C@@H](O)[C@H]2O)[C@H](C)Cl)N(C)C1 [Clindamycin] |  |  |  |  |  |  |  |  |  |  |  |  |  |  | MICcombo [6]: 64 µg/mL; MIC [6]: 512 µg/mL; MICcombo [7]: 4 µg/mL; MIC [7]: 64 µg/mL; MICcombo [8]: 128 µg/mL; MIC [8]: 2050 µg/mL (≈ 4820 µM)
CO/N=C(\C(=O)N[C@@H]1C(=O)N2C(C(=O)O)=C(CSc3nc(=O)c(=O)[nH]n3C)CS[C@H]12)c1csc(N)n1 [CTR, ceftriaxone] |  |  |  |  |  | > 64 | 64 (≈ 115 µM) | > 64 | > 64 |  |  |  |  |  | 
